Here are results for two compounds from article PMC5835975, “[^64Cu]NOTA-pentixather enables high resolution PET imaging of CXCR4 expression in a preclinical lymphoma model” (EJNMMI Radiopharmacy and Chemistry, 2017).

Like-named read-outs stand apart in the source and are kept apart here. Where a SMILES comes first, the peptide text is derived from it. Side-chain parts run from the residue outwards. [ ]: non-standard residue; d: D form. The star is where a group is joined. NODAGA = O=C(O)CN1CCN(CC(=O)O)CCN(C(CCC(=O)*)C(=O)O)CC1; NOTA = O=C(O)CN1CCN(CC(=O)O)CCN(CC(=O)*)CC1; dTyr(3-I) = N[C@H](Cc1ccc(O)c(I)c1)C(=O)O; 2Nal = N[C@@H](Cc1ccc2ccccc2c1)C(=O)O; dNMeOrn = CN[C@H](CCCN)C(=O)O; 4Amb = NCc1ccc(C(=O)O)cc1

In one data set the target is T1, human CXCR4 (Homo sapiens, UniProt P61073).
T1 construct: CXCR4-expressing Jurkat T-lymphocytes (4 × 10^5 cells per sample); endogenous in cells; host or cells: Jurkat T-cell leukemia cells
The data set is described as follows: Competitive binding assay on Jurkat T-cell leukemia cells with [^125I]FC131 as radioligand. As to conditions: Jurkat cells 400.000 cells/sample, [^125I]FC131 radioligand, mean ± SD, min. three determinations. As for the experimental part:
The CXCR4 affinities of [^natCu]NOTA- and [^natCu]NODAGA-pentixather as well as of the corresponding metal free chelator-conjugated peptides were determined in a competitive binding assay using standard conditions (CXCR4-expressing Jurkat T-lymphocytes (4 × 10^5 cells per sample) and [^125I]FC131 as the radioligand (Poschenrieder et al. [2016a]; Wester et al. [2015]; Schottelius et al. [2015]; Poschenrieder et al. [2016b])) (Table 1). Data for [^natGa]pentixafor and FC131 are included as a reference. As already observed for [^natGa]pentixafor, metal complexation leads to enhanced CXCR4 affinity, both for [^natCu]NOTA-pentixather and for [^natCu]NODAGA-pentixather.
CXCR4 affinities were determined using Jurkat T-cell leukemia cells and [^125I]FC131 as the radioligand (Poschenrieder et al. [2016b]). Briefly, cells (4 × 10^5 cells per vial) were incubated with app. 0.1 nM of [^125I]FC131 in the presence of varying concentrations (10^−11 to 10^−5 M) of the respective peptide of interest (n = 3 samples/concentration) for 120 min at RT. After centrifugation and repeated washing steps, the amount of free and bound radioligand were quantified for each sample using a γ-counter, and IC50 values were calculated using GraphPad Prism 6.01 software.

The format of data set [1] is physicochemical. Particulars: buffer, 24 h, pH 2.5. As for the experimental part:
To investigate the in vitro stability of [^64Cu]NOTA-pentixather, the tracer was incubated both in human serum at 37 °C and in 0.1 M EDTA at pH = 2.5 and physiological pH (7.4) at RT for different time points up to 24 h (Fig. 7). [^64Cu]NOTA-pentixather remained stable over 24 h in human serum (>99% intact ^64Cu-chelate).
Fig. 7 In vitro stability of [^64Cu]NOTA-pentixather as a function of incubation time.
For challenging experiments, 4 MBq of [^64Cu]NOTA-pentixather were incubated in 0.1 M EDTA at different pH values (2.5 and 7.4) for a minimum of 24 h. At specific time points, samples were analyzed via radio-TLC using silica gel impregnated chromatography paper (Agilent Technologies, CA, USA) and 0.1 M phosphate buffer (pH = 7.4) containing 10 mM sodium EDTA as the mobile phase.

Data set [2] concerns Daudi xenograft-bearing CB-17 SCID mice. Particulars: mouse, in vivo. Here is the method:
(§1) Biodistribution data of [^64Cu]NOTA-pentixather at 1.5 h p.i. (n = 5, black bars) and 24 h p.i. Given the fact that Jurkat cells, which are generally used for the determination of CXCR4 affinity, are not tumorigenic in mice and to ensure comparability of data with previous studies (Poschenrieder et al. [2016a]; Wester et al. [2015]; Schottelius et al. [2015]), the Daudi lymphoma model was also used in this study. […] While the tumor-to-background ratios for most tissues remain unchanged or decrease within the observation period, t/blood and t/intestine ratios increase 1.3 and 2.4 fold between 1.5 and 24 h p.i., respectively.
(§2) Fig. 3 Biodistribution of [^64Cu]NOTA-pentixather at 1.5 h (tracer only, black bars, n = 5) and 24 h p.i. (grey bars, n = 6) in Daudi xenograft-bearing CB-17 SCID mice. Mice were injected with 5.2 MBq [^64Cu]NOTA-pentixather (122 pmol/0.160 μg peptide; AS = 43 GBq/μmol). Non-specific tracer accumulation was determined by coinjection of 2 mg/kg AMD3100 (50 μg/mouse; white bars, n = 3)
(§3) For PET and biodistribution studies, an average of 5.2 MBq [^64Cu]NOTA-pentixather (200 μL in PBS, 122 pmol, 160 ng) with a SA of 43 GBq/μmol was injected intravenously into the tail vein of isofluorane anaesthesized female Daudi (human B-cell lymphoma) xenograft bearing CB17 SCID mice. […] PET imaging with [^64Cu]NOTA-pentixather under ‘tracer only’ (n = 2) as well as blocking conditions (coinjection of 2 mg/kg AMD3100, n = 1) was performed at three different time points (dynamic PET imaging for 1 h, followed by static image acquisition for 15 min after 3.5 and 24 h) using an Inveon Siemens μPET scanner. PET/CT images were reconstructed by a two-dimensional ordered subset expectation maximum (2D-OSEM) algorithm with no attenuation correction. Image analysis was performed using the Inveon software, and results were calculated as %ID/g. For biodistribution studies, the mice were sacrificed at 1.5 h (n = 5) and 24 h (n = 6) p.i., tissues and organs of interest were dissected, weighed, and counted for radioactivity in a γ-counter. The percentage of injected dose per gram of tissue (% ID/g) was calculated; data are presented as mean ± SD.

Details of data set [3]: species or system mice. As to conditions: mouse, in vivo, iv. Here is the method: as §1, §2, §3
Data set [4] is classed as physicochemical. As to conditions: pH 7.4. As for the experimental part:
The lipophilicity and serum stability of [^64Cu]NOTA-pentixather were determined as described previously (Poschenrieder et al. [2016a]). Briefly, to a solution of app. 2 kBq of radiolabelled peptide in 500 μL of PBS (pH 7.4), 500 μL of octanol were added (n = 6). Vials were vortexed vigorously for 3 min. To achieve quantitative phase separation, the vials were centrifuged at 14,600 · g for 6 min in a Biofuge 15 (Heraeus Sepatech, Osterode, Germany). The activity concentrations in 100 μL samples of both the aqueous and the organic phase were measured in a gamma counter, and the log Pow was calculated.

T1 sequence (P61073 whole entry): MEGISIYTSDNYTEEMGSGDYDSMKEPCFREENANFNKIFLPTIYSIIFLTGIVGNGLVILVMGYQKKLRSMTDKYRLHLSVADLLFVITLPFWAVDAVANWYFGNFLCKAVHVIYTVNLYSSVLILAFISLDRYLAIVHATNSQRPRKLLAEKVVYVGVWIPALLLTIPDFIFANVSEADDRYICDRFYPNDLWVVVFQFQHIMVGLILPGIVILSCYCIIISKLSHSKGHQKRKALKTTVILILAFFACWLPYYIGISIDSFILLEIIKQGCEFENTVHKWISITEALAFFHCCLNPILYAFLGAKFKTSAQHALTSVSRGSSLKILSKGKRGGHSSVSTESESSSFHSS

As a reminder, the IC50 is the concentration at which inhibition is half-maximal. Lower therefore signals greater potency in that assay. `CN1C(=O)[C@@H](Cc2ccc(O)c(I)c2)NC(=O)CNC(=O)[C@H](Cc2ccc3ccccc3c2)NC(=O)[C@H](CCCNC(=N)N)NC(=O)[C@H]1CCCNC(=O)c1ccc(CNC(=O)CCC(C(=O)O)N2CCN(CC(=O)O)CCN(CC(=O)O)CC2)cc1` (stereo partly shown) [NODAGA-pentixather] (cyclo([2Nal]G[dTyr(3-I)][dNMeOrn]([4Amb-NODAGA])R)): the IC50 at human CXCR4 is 64.9 ± 6.5 nM.

For orientation: tissue uptake means the percentage of the injected dose found per gram of tissue. The term logP denotes the decadic logarithm of the partition coefficient of the neutral form, usually between octanol and water. Lower therefore signals a more hydrophilic compound. On to `CN1C(=O)[C@@H](Cc2ccc(O)c(I)c2)NC(=O)CNC(=O)[C@H](Cc2ccc3ccccc3c2)NC(=O)[C@H](CCCNC(=N)N)NC(=O)[C@H]1CCCNC(=O)c1ccc(CNC(=O)CN2CCN(CC(=O)O)CCN(CC(=O)O)CC2)cc1` [[^64Cu]NOTA-pentixather, metal not drawn] (cyclo([dTyr(3-I)][dNMeOrn]([4Amb-NOTA])R[2Nal]G)), for which the tracer remaining intact entry in data set [1] is given as “over 90%”. Moreover, the “increase of t/blood ratio” value in data set [2] is given as 1.3 fold. Also, in data set [2], the “increase of t/intestine ratio” value was determined as 2.4 fold. Moreover, the tissue uptake at 1.5 h in data set [3] (Tumor uptake) worked out at 13.1 ± 1.5 %ID/g; in data set [3] (accumulation in the intestines), 5 ± 2.8 %ID/g; in data set [3] (accumulation in the liver) it was 7.2 ± 1.1 %ID/g; in data set [3] (activity accumulation in the kidney), 3.8 ± 0.5 %ID/g; in data set [3] (activity in blood), 1.1 ± 0.2 %ID/g. For the same compound, the logP in data set [4] is -1.2.
